Test systems include A498; DU-145; EKVX; HCT-116; HOP-62; HT-29; K562; MDA-MB-435; MDA-N; NCI-H23; NCI-H522; OVCAR-5; PC-3; SK-MEL-28; SNB-75; SW-620; TK-10; UO-31; UACC-62.
Test in all cases: growth of human tumour cells (NCI), 48 h

Each structure is given as a SMILES string.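 Briefly, cells in 96-well plates were exposed to five compound concentrations for 48 h, and endpoints were estimated by linear interpolation. Abbreviation: GI50, concentration required for 50% inhibition of growth.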 The source made the active and inactive calls. No stated cut-off is given here; in the data, active = GI50 up to about 1.1 µM and inactive = higher. Where only a bound is given, the exact number is not on record here.

For the molecule `CC(=O)Oc1ccc(-c2cc3ccccc3oc2=O)cc1`, the GI50 in the experiment with A498 is 38.9 µM (inactive); in the experiment with DU-145 it was > 100 µM (inactive); with EKVX, 61.1 µM (inactive); with HCT-116, > 100 µM (inactive); in the experiment with HOP-62, > 100 µM (inactive); in the experiment with HT-29 it was > 100 µM (inactive). The GI50 is 83.4 µM (inactive) in the experiment on K562; > 100 µM (inactive) in the experiment with MDA-MB-435; > 100 µM (inactive) in the experiment with MDA-N; > 100 µM (inactive) with NCI-H23; 21.8 µM (inactive) in the experiment with NCI-H522; > 100 µM (inactive) in the experiment with OVCAR-5. Also, the GI50 is > 100 µM (inactive) in the experiment with PC-3; > 100 µM (inactive) with SK-MEL-28; 56.6 µM (inactive) in the experiment on SNB-75; > 100 µM (inactive) in the experiment with SW-620; > 100 µM (inactive) in the experiment with TK-10; > 100 µM (inactive) in the experiment on UO-31.

In the case of `COc1ccc(Oc2nc(C#CC(C)(C)O)nc(Oc3ccc(OC)cc3)n2)cc1`, the GI50 with A498 is 17.8 µM (inactive); with DU-145 it was 2.62 µM (inactive); with EKVX, 16 µM (inactive); in the experiment with HCT-116 it was 2.82 µM (inactive); in the experiment on HOP-62, 21.8 µM (inactive); in the experiment with HT-29 it was 3.3 µM (inactive). For the same molecule, the GI50 in the experiment with K562 is 1.67 µM (inactive); with MDA-MB-435, 4.44 µM (inactive); in the experiment on MDA-N it was 8.55 µM (inactive); with NCI-H23, 7.74 µM (inactive); in the experiment with NCI-H522, 3.2 µM (inactive); with OVCAR-5 it was 4.72 µM (inactive). Further, the GI50 in the experiment on PC-3 is 2.52 µM (inactive); in the experiment on SK-MEL-28, 4.9 µM (inactive); with SNB-75, 15.1 µM (inactive); with SW-620 it was 1.84 µM (inactive); in the experiment with TK-10 it was 12.6 µM (inactive); in the experiment with UACC-62, 11.6 µM (inactive). Besides, the GI50 in the experiment on UO-31 is 1.55 µM (inactive).

`c1ccc(CN[C@]23C4C5CC6C7C5C2C7[C@@](NCc2ccccc2)(C64)N3Cc2ccccc2)cc1` (some centres not stated): the GI50 in the experiment with A498, in the experiment on DU-145, with EKVX, in the experiment on HCT-116, in the experiment with HOP-62 and in the experiment with HT-29 was > 100 µM (inactive) throughout. In addition, the GI50 in the experiment with K562 is > 100 µM (inactive); in the experiment with MDA-MB-435 it was > 100 µM (inactive); in the experiment on MDA-N it was > 100 µM (inactive); with NCI-H23, > 100 µM (inactive); in the experiment with NCI-H522 it was 91.8 µM (inactive); in the experiment on OVCAR-5 it was > 100 µM (inactive). The GI50 in the experiment with PC-3, in the experiment on SK-MEL-28, in the experiment with SNB-75, in the experiment with SW-620, with TK-10 and in the experiment on UACC-62 was > 100 µM (inactive) each time. Further, in the experiment with UO-31, the GI50 is > 100 µM (inactive).

On to `COc1cc(/C=C/C(=N\NC(N)=S)c2sc(NNC(C)=O)nc2C)ccc1O`, for which the GI50 in the experiment with A498, in the experiment on DU-145, with EKVX, in the experiment on HCT-116, in the experiment with HOP-62 and with HT-29 was > 100 µM (inactive) each time. The GI50 in the experiment with K562, in the experiment on MDA-MB-435, in the experiment with MDA-N, in the experiment on NCI-H23, in the experiment on NCI-H522 and in the experiment with OVCAR-5 was > 100 µM (inactive) each time. Moreover, the GI50 with PC-3, in the experiment with SK-MEL-28, in the experiment on SNB-75, with SW-620, with TK-10 and in the experiment on UACC-62 was > 100 µM (inactive) each time. For the same molecule, the GI50 in the experiment with UO-31 was > 100 µM (inactive).

For the molecule `CCOC(=O)CCC(NC(=O)OCc1ccccc1)C(=O)NC(CCC(=O)OCC)C(=O)NC(CCC(=O)OCC)C(=O)NC(CCC(=O)OCC)C(=O)NC(CCC(=O)OCC)C(=O)NC(CCC(=O)OCC)C(=O)NC(CCC(=O)OCC)C(=O)OCC` (configuration not stated), the GI50 in the experiment with A498 was 84.9 µM (inactive); in the experiment with DU-145, > 100 µM (inactive); with HCT-116 it was > 100 µM (inactive); in the experiment on HOP-62, > 100 µM (inactive); with HT-29, > 100 µM (inactive); with K562 it was > 100 µM (inactive). In addition, the GI50 with MDA-MB-435 is > 100 µM (inactive); in the experiment on MDA-N it was > 100 µM (inactive); with NCI-H23, > 100 µM (inactive); in the experiment on NCI-H522, 43.5 µM (inactive); with OVCAR-5 it was > 100 µM (inactive); with PC-3, > 100 µM (inactive). Further, the GI50 is > 100 µM (inactive) in the experiment on SK-MEL-28; 40.5 µM (inactive) in the experiment on SNB-75; > 100 µM (inactive) in the experiment with SW-620; > 100 µM (inactive) with TK-10; > 100 µM (inactive) in the experiment on UACC-62; 79.4 µM (inactive) in the experiment on UO-31.

In the case of `CN1CCC2(CC1)C(=O)N(N1CCCCCC1)C(=O)N2c1ccccc1`, the GI50 in the experiment with A498 was 34.7 µM (inactive); in the experiment on DU-145, > 100 µM (inactive); in the experiment with EKVX it was > 100 µM (inactive); with HCT-116 it was 18.2 µM (inactive); with HOP-62, > 100 µM (inactive); with HT-29, 60.5 µM (inactive). The GI50 is > 100 µM (inactive) in the experiment on K562; > 100 µM (inactive) in the experiment on MDA-MB-435; > 100 µM (inactive) with MDA-N; > 100 µM (inactive) in the experiment on NCI-H23; 57.7 µM (inactive) in the experiment with NCI-H522; > 100 µM (inactive) in the experiment on OVCAR-5. For the same molecule, the GI50 in the experiment on PC-3 was 77.8 µM (inactive); in the experiment with SK-MEL-28, > 100 µM (inactive); in the experiment on SNB-75, 31.9 µM (inactive); in the experiment with SW-620, > 100 µM (inactive); with TK-10, > 100 µM (inactive); in the experiment with UACC-62, 96.6 µM (inactive). In the experiment on UO-31, the GI50 is > 100 µM (inactive).

`O=S(=O)(O)SCCNCCCCCC1CCCCC1`: the GI50 was 25.1 µM (inactive) in the experiment with A498; 6.3 µM (inactive) with DU-145; 9.73 µM (inactive) in the experiment with EKVX; 5.05 µM (inactive) in the experiment with HCT-116; 7.43 µM (inactive) in the experiment on HOP-62; 6.9 µM (inactive) with HT-29. In addition, the GI50 in the experiment on K562 is 0.863 µM (active); in the experiment with MDA-MB-435, 3.44 µM (inactive); in the experiment on MDA-N it was 12.8 µM (inactive); in the experiment with NCI-H23, 10.4 µM (inactive); in the experiment on NCI-H522, 18.4 µM (inactive); in the experiment with OVCAR-5, 9.64 µM (inactive). Moreover, the GI50 with PC-3 was 8.02 µM (inactive); in the experiment with SK-MEL-28 it was 4.26 µM (inactive); with SNB-75 it was 3.56 µM (inactive); in the experiment on SW-620, 7.78 µM (inactive); with TK-10 it was 9.38 µM (inactive); in the experiment on UACC-62 it was 1.88 µM (inactive). Also, in the experiment with UO-31, the GI50 was 13.9 µM (inactive).

For the molecule `Cc1c2ccccc2nc2[nH]c3ccncc3c12`, the GI50 is 42.9 µM (inactive) with A498; 34.5 µM (inactive) in the experiment with DU-145; 13.9 µM (inactive) in the experiment with EKVX; 25.6 µM (inactive) with HOP-62; 28.2 µM (inactive) in the experiment on HT-29; 51.5 µM (inactive) in the experiment on K562. Also, the GI50 is 33 µM (inactive) in the experiment with MDA-MB-435; 35 µM (inactive) with MDA-N; 33 µM (inactive) in the experiment with NCI-H23; 36.1 µM (inactive) in the experiment on NCI-H522; 35.3 µM (inactive) in the experiment with OVCAR-5; 38.3 µM (inactive) with PC-3. Moreover, the GI50 in the experiment on SK-MEL-28 is 70.6 µM (inactive); in the experiment on SNB-75, 86.3 µM (inactive); in the experiment with SW-620 it was 23.9 µM (inactive); with TK-10, 19.3 µM (inactive); with UACC-62, 25.4 µM (inactive); in the experiment with UO-31, 25.9 µM (inactive).

As to `COC(=O)C1(NC(=O)C(CC(=O)OCc2ccccc2)NC(=O)OCc2ccccc2)CCCCCCC1` (configuration not stated), the GI50 with A498 is 13.6 µM (inactive); with DU-145, > 100 µM (inactive); with EKVX, 45.4 µM (inactive); in the experiment on HCT-116 it was 27.9 µM (inactive); in the experiment on HOP-62 it was > 100 µM (inactive); with HT-29, 24.6 µM (inactive). Moreover, the GI50 in the experiment with K562 was 10.2 µM (inactive); in the experiment on MDA-MB-435 it was 29.9 µM (inactive); in the experiment on MDA-N it was 28.6 µM (inactive); in the experiment on NCI-H23, 46.6 µM (inactive); with NCI-H522, 13 µM (inactive); in the experiment with OVCAR-5 it was 62.7 µM (inactive). In addition, the GI50 in the experiment with PC-3 was 7.96 µM (inactive); in the experiment on SK-MEL-28 it was 8.69 µM (inactive); in the experiment on SNB-75 it was 28.6 µM (inactive); with SW-620, 31.3 µM (inactive); in the experiment on TK-10, 47.4 µM (inactive); in the experiment with UACC-62, 24.3 µM (inactive). For the same molecule, the GI50 in the experiment on UO-31 was 35.6 µM (inactive).

In the case of `CCCNC1=Nc2ccccc2N(Cc2ccccc2)CC1`, the GI50 was 11.4 µM (inactive) in the experiment with A498; 33.9 µM (inactive) in the experiment on DU-145; 30.5 µM (inactive) in the experiment with EKVX; 29.7 µM (inactive) with HCT-116; 30.5 µM (inactive) in the experiment on HOP-62; 19.5 µM (inactive) with HT-29. For the same molecule, the GI50 in the experiment with K562 was 5.57 µM (inactive); in the experiment on MDA-MB-435 it was 19.1 µM (inactive); with MDA-N it was 26 µM (inactive); with NCI-H23 it was 16.5 µM (inactive); in the experiment on NCI-H522, 13.9 µM (inactive); in the experiment with OVCAR-5, 40.2 µM (inactive). Also, the GI50 is 19.3 µM (inactive) with PC-3; 13.3 µM (inactive) with SK-MEL-28; 5.62 µM (inactive) with SNB-75; 23.7 µM (inactive) with SW-620; 27.8 µM (inactive) in the experiment with TK-10; 13.5 µM (inactive) with UACC-62. Besides, the GI50 in the experiment on UO-31 is 30.3 µM (inactive).

Values taken from ChEMBL document CHEMBL1201862, “PubChem BioAssay data set” (2004).
